Columns and labels:
[1] = test system: carrageenin-induced rat foot edema; experiment: carrageenin-induced rat foot edema test; format: in vivo; settings: for % Inhibition at 32 mg./kg. (inhibition of edema formation): rats, 32 mg./kg. orally (by gavage), compared to vehicle control
From the text: (§1) Such conditions include gastrointestinal disorders such as ulcer and colitis and other like diseases of the gastrointestinal tract, central nervous system disorders such as anxiety and psychosis, inflammatory diseases such as rheumatoid arthritis and inflammatory bowel diseases, respiratory diseases such as asthma, as well as pain in any of the aforesaid conditions, including migraine. […] A. Winter et al., Proceedings of the Society of Experimental Biology and Medicine, Vol. 111, p.
In this test, anti-inflammatory activity is determined as the percent inhibition of edema formation in the hind par of male albino rats (weighing 150-190 g.) in response to a sub-plantar injection of carrageenin. The carrageenin is injected as a 1% aqueous solution. Edema formation is then assessed by measuring the volume of the injected paw initially as well as three hours after the carrageenin injection. The increase in volume three hours after carrageenin injection constitutes the individual response. Compounds are considered active if the difference in response between the drug-treated animals (six rats/group) and a control group receiving the vehicle alone is significant on comparison with the results afforded by a standard compound like phenylbutazone at 33 mg./kg., via the oral route of administration.
The following cis-[(cyclic)methylamino]-2-benzhydrylquinuclidine final products of Examples 2, 3 and 4, respectively, were tested for anti-inflammatory activity in rats, using the standard rat foot edema test, according to the general procedure described by C. A. Winter et al., as first reported in the Proceedings of the Society for Experimental Biology and Medicine, Vol. 111, p. 544 (1962).

[2] = test system: substance P-induced locomotion; experiment: suppression of substance P-induced hypermotility (locomotion) in rats; format: in vivo, rat; settings: 32 mg./kg. dose level, intraperitoneal route
From the text: as §1
The anti-psychotic activity of the compounds of the present invention as neuroleptic agents for the control of various psychotic disorders is determined primarily by a study of their ability to suppress substance P-induced hypermotility in rats. This study is carried out by first dosing the rats with a control compound or with an appropriate test compound of the present invention, then injecting the rats with substance P by intracerebral administration via canula and thereafter measuring their individual locomotor response to said stimuli.

## Clc1ccccc1CN[C@H]1C2CCN(CC2)[C@H]1C(c1ccccc1)c1ccccc1 (relative stereo) [Example 2, cis-3-[(2-chlorophenyl)methylamino]-2-benzhydrylquinuclidine]
[1]; rat, 100 mg./kg. dose level, oral route
  inhibition in swelling: 50%
[1]
  % Inhibition at 32 mg./kg. (inhibition of edema formation): 29%
[2]
  inhibition of substance P-induced locomotion: 50%

## FC(F)(F)c1ccccc1CN[C@H]1C2CCN(CC2)[C@H]1C(c1ccccc1)c1ccccc1 (relative stereo) [Example 3, cis-3-[(2-trifluorophenyl)methylamino]-2-benzhydrylquinuclidine]
[1]
  % Inhibition at 32 mg./kg. (inhibition of edema formation): 50%

## COc1ccccc1CN[C@H]1C2CCN(CC2)[C@H]1C(c1ccccc1)c1ccccc1 (relative stereo) [Example 4, cis-3-[(2-methoxyphenyl)methylamino]-2-benzhydrylquinuclidine]
[1]
  % Inhibition at 32 mg./kg. (inhibition of edema formation): 38%

From patent US5162339A, “Quinuclidine therapeutic agents” (Pfizer Inc., priority 1990, dated 1992)
